Measured values as given in patent publication US20050267182A1, “Urea derivatives as FLT-3 modulators” (Ambit Biosciences Corporation, priority 2003, published 2005).

Key:
FLT3 = molecular target: T1, FLT3 (Homo sapiens, UniProt P36888); experiment: Binding constant (Kd) measurement, phage-displayed kinase competition binding assay; conditions: for Binding Assay: FLT3(JMminus): FLT3(JMminus) construct
T1 construct: FLT3(DKIN); made in house
T1 sequence (P36888 610-943 limits assumed): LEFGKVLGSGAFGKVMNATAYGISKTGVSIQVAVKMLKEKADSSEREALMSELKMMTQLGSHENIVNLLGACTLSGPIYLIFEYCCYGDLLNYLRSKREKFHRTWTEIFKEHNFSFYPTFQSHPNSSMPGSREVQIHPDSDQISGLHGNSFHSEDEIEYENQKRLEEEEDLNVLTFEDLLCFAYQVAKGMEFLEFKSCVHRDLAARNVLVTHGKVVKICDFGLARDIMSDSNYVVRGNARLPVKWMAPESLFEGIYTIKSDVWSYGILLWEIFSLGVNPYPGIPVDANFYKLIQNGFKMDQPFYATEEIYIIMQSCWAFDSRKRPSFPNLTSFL
Excerpt: Binding Constant (Kd) Measurements for Small-Molecule-Kinase Interactions
The term “ND” represents non-determined values.

MV4,11 cells = experiment: FLT3 assay using MV4,11 cells (cellular proliferation, MTS); assay type: cell-based, human; conditions: cell assay code CS0001
Description: The ability of FLT3 kinase inhibitors to inhibit cellular proliferation was also examined. MV4:11 was a cell line derived from a patient with acute myelogenous leukemia.
FLT3 Assay Using MV4,11 Cells
MV4,11 cells were grown in an incubator @ 37° C. in 5% CO2 in Medium 2 (RPMI, 10% FBS, 4 mM glutamine, Penn/Strep). The cells were counted daily and the cell density was kept between 1e5 and 8e5 cells/ml.
Day One: Enough cells were harvested for experiments to be conducted in 50 ml conical tubes. The harvested cells were spun at 500 g for 5 min at 4° C., the supernatant was then aspirated and the cells were resuspended in the starting volume of 1×PBS. The cells were again spun at 500 g for 5 min at 4° C. and the supernatant again aspirated. The cells were then resuspended in medium 3 (DMEM w/ glut, 10% FBS, Penn/Strep) to a density of 4e5 cells/ml and incubated (37° C. in 5% CO2 O/N.
Day Two: The cells were counted and enough medium 3 was added to decrease density to 2e5 cells/ml. 50 ul (10,000 cells) was aliquoted into each well of a 96 well optical plate using multichannel pipetman. The compound plate was then set up by aliquoting 3 μl of negative control (DMSO) into column 1 of a 96 well 300 ul polypropylene plate, aliquoting 3 μt of positive control (10 mM AB20121) into column 12 of plate, and aliquoting 3 μl of appropriate compounds from serial dilutions into columns 2-11. To each well, 150 μl of Medium 3 was added and 50 μl of compound/medium mixture from compound plate into rows of optical plate in duplicate. The cells were then incubated @ 37° C. in 5% CO2 for 3 days.
Day Five: MTS was thawed in a H2O bath. 20 μl of MTS was added to each well of optical plate and the cells were incubated (37° C. in 5% CO2 for 2 hours. The plate was then placed on a plate shaker for 30 seconds on high speed.

Binding Assay: FLT3(DKIN) (FLT3; FLT3(DKIN) construct)	Cell Assay: CS0001:IC50 (MV4,11 cells)	Binding Assay: FLT3(JMminus) (FLT3)	IC50 (MV4,11 cells; Homo sapiens, MV4-11) [µM]	Kd (FLT3; FLT3(DKIN) construct) [µM]	SMILES
+ + +	+ + +				CC(C)(C)c1cc(NC(=O)Nc2ccc(NC(=O)c3cc(Cl)nc(Cl)c3)cc2)no1 [Compound N132]
+ + +	+ +				CC(C)(C)c1cc(NC(=O)Nc2ccc(NC(=O)c3c(F)cccc3F)cc2)no1 [Compound N37]
	+ +	+ + +			COc1cc(NC(=O)CCC(=O)N2CCNC(=O)CC2)ccc1NC(=O)Nc1cc(C(C)(C)C)on1 [Compound N172]
+ + + +	+ + +				CC(C)(C)c1cc(NC(=O)Nc2ccc(NC(=O)c3cccc(SC(F)F)c3)cc2)no1 [Compound N25]
+ + + +	+ + + +				CC(C)(C)c1cc(NC(=O)Nc2ccc(NC(=O)CCc3ccccc3)cc2)no1 [Compound N96]
+ + + +	+ + + +				Cc1cccnc1-c1noc(-c2ccc(NC(=O)Nc3cc(C(C)(C)C)on3)cc2)n1 [Compound P4]
+ + +	+ + +				COc1ccc(-c2noc(-c3ccc(NC(=O)Nc4cc(C(C)(C)C)on4)cc3)n2)c2ccccc12 [Compound P3]
+ +	+ +				CC(C)(C)c1cc(NC(=O)Nc2ccc(NC(=O)c3c[nH]c(=O)nc3-c3ccncc3)cc2)no1 [Compound N19]
	+ +			> 10	CC(C)CCOC(=O)c1nnsc1NC(=O)Nc1ccc(Br)cc1 [Compound Z36]
+ + + +	+ + +				CC(C)(C)c1cc(NC(=O)Nc2ccc(NC(=O)C3=Cc4cc(F)cc(S(C)(=O)=O)c4C3)cc2)no1 [Compound N62]
	+ +	+ + +			CC(C)(C)c1cc(NC(=O)Nc2ccc(NC(=O)c3nnsc3Sc3ccc(Cl)cc3)cc2)no1 [Compound N71]
+ + +	+ + +				CC(C)(C)c1cc(NC(=O)Nc2ccc(NC(=O)c3cccc4nc5cc(O)cc(O)c5cc34)cc2)no1 [Compound N139]
+ + + +	+ + +				CC(C)(C)c1cc(NC(=O)Nc2ccc(NC(=O)c3ccnc4ccccc34)cc2)no1 [Compound N141]
+ +	+ +				C=C/C(=C\C=C\Cl)NC(=O)Nc1ccc(C(=O)OCCOC)cc1 [Compound Z54]
+ + + +	+ + +				COc1cccc(-c2ccc(C(=O)Nc3ccc(NC(=O)Nc4cc(C(C)(C)C)on4)cc3)o2)c1 [Compound N105]

Continued, compound first:

SMILES	Binding Assay: FLT3(DKIN) (FLT3; FLT3(DKIN) construct)	Cell Assay: CS0001:IC50 (MV4,11 cells)	Binding Assay: FLT3(JMminus) (FLT3)	IC50 (MV4,11 cells; Homo sapiens, MV4-11) [µM]	Kd (FLT3; FLT3(DKIN) construct) [µM]
COc1ccc(NC(=O)Nc2cc(C(C)(C)C)on2)cc1OC [Compound A55]			+ +	> 10	
Cc1ccc(-n2nc(C(C)(C)C)cc2NC(=O)Nc2ccc(OCCN3CCOC(CO)C3)c3ccccc23)cc1 (stereo not shown) [Compound G38]	+ + + +	+ + +			
CC(C)(C)c1cc(NC(=O)Nc2ccc(OCc3ccc(C(F)(F)F)cc3)cc2)no1 [Compound G6]	+ + + +	+ + +			
C=CCOc1ccc(NC(=O)Nc2cc(C(C)(C)C)no2)cc1 [Compound G32]	+ + + +	+ + + +			
CC(C)(C)c1cc(NC(=O)Nc2ccc(OCc3ccccc3-c3ccccc3)cc2)no1 [Compound G8]	+ + +	+ +			
CC(C)(C)c1cc(NC(=O)Nc2ccc(OCCc3ccccn3)cc2)no1 [Compound G27]	+ + + +	+ + +			
Cc1ccc(COc2ccc(NC(=O)Nc3cc(C(C)(C)C)on3)cc2)cc1 [Compound G15]	+ + + +	+ + + +			
CC(C)(C)c1csc(NC(=O)Nc2ccc(OCc3ccccc3)cc2)n1 [Compound G49]	+ +	+ + +			
